In the supplement of paper PMC11424490:
Where a name gives a salt, the structure may show the parent alone.

Legend:
SW837 = experiment: fitted bottom plateau of viability curve, % of DMSO control; higher = less maximal inhibition; extreme values may be limits of the assay
Experimental: (§1)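 CellTiter-Glo proliferation assay in KRAS G12C mutant NCI-H2122 (72 h), SW837 (144 h) and NCI-H358 cells in 384-well plates. Monotherapy dose response was fitted with a four-parameter curve after normalisation to DMSO controls (% of control, PoC). IC50 is the relative IC50, averaged over replicates. Bottom is the fitted lower plateau in %PoC; Max.Conc. is the top dose tested.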

NCI-H2122 = experiment: as above
Experimental: as §1

| Structure (SMILES) | fitted bottom plateau of viability curve (SW837) [%] | fitted bottom plateau of viability curve (NCI-H2122) [%] |
| --- | --- | --- |
| CCN1CCN(c2ccc(Nc3cc(N(C)C(=O)Nc4c(Cl)c(OC)cc(OC)c4Cl)ncn3)cc2)CC1 [BGJ398] (top concentration tested 1000 nM) | 90.4 | 78.2 |
| C[C@@H]1CCN(C(=O)CC#N)C[C@@H]1N(C)c1ncnc2[nH]ccc12 [Tofacitinib citrate] (top concentration tested 10000 nM) | 99 | 63 |
| COc1ccc(Cn2ccc3ccc(C(=O)NO)cc32)cc1 (top concentration tested 10000 nM) | 99.9 | 67.3 |
| CC1=C(/C=C/C(C)=C/C=C/C(C)=C/C(=O)O)C(C)(C)CCC1 [Tretinoin] (top concentration tested 10000 nM) | 105 | 78.8 |
| C[C@]1(c2nc3c(C(N)=O)cccc3[nH]2)CCCN1 [Veliparib] (top concentration tested 10000 nM) | 102 | 93.6 |
| NC(=O)Nc1cc(-c2cccc(F)c2)sc1C(=O)N[C@H]1CCCNC1 [AZD-7762] (top concentration tested 99.882 nM) | 89.7 | 62.8 |
| C[C@@H]1C[C@H]2[C@@H]3CCC4=CC(=O)C=C[C@]4(C)[C@@]3(F)[C@@H](O)C[C@]2(C)[C@@]1(O)C(=O)CO [Dexamethasone] (top concentration tested 10000 nM) | 82 | 58.2 |
| CO[C@H]1C[C@@H]2CC[C@@H](C)[C@@](O)(O2)C(=O)C(=O)N2CCCC[C@H]2C(=O)O[C@H]([C@H](C)C[C@@H]2CC[C@@H](O)[C@H](OC)C2)CC(=O)[C@H](C)/C=C(\C)[C@@H](O)[C@@H](OC)C(=O)[C@H](C)C[C@H](C)/C=C/C=C/C=C/1C [Rapamycin] (top concentration tested 1000 nM) | 88.4 | 64.1 |
| Cc1ccc(Nc2nccc(N(C)c3ccc4c(C)n(C)nc4c3)n2)cc1S(N)(=O)=O [Pazopanib] (top concentration tested 10000 nM) | 91.9 | 80.9 |
| NC(=O)c1ccc(-c2nc(-c3ccccn3)c(-c3ccc4c(c3)OCO4)[nH]2)cc1 (top concentration tested 9999.9 nM) | 96.5 | 96.2 |
| CCCS(=O)(=O)Nc1ccc(F)c(C(=O)c2c[nH]c3ncc(Cl)cc23)c1F [PLX4720] (top concentration tested 10000 nM) | 101 | 73.6 |
| CC(C)(C(=O)NCC(F)(F)C(F)(F)F)C(=O)N[C@@H]1C(=O)Nc2ccccc2-c2ccccc21 (top concentration tested 9999.9 nM) | 98.6 | 77.8 |
| O=C(O)CCCCC(CCSCc1ccccc1)SCc1ccccc1 (stereo not drawn) [CPI-613] (top concentration tested 10000 nM) | 89.5 | 93.6 |
| CC[C@H](C)C(=O)O[C@H]1C[C@@H](C)C=C2C=C[C@H](C)[C@H](CC[C@@H]3C[C@@H](O)CC(=O)O3)[C@H]21 [Lovastatin] (top concentration tested 10000 nM) | 83.6 | 56.1 |
| N#CC[C@H](C1CCCC1)n1cc(-c2ncnc3[nH]ccc23)cn1 [Ruxolitinib] (top concentration tested 9999.9 nM) | 88.3 | 73.3 |
| O=C(Cc1ccccc1)Nc1nnc(CCSCCc2nnc(NC(=O)Cc3ccccc3)s2)s1 [BPTES] (top concentration tested 10000 nM) | 90.2 | 56.3 |
| c1ccc(-c2nn3c(c2-c2ccnc4cc(OCCN5CCOCC5)ccc24)CCC3)nc1 (top concentration tested 9999.9 nM) | 90.3 | 78.1 |
| Cc1ncc([N+](=O)[O-])n1CCOC(=O)NC(Nc1ncccn1)C(Cl)(Cl)Cl (stereo not drawn) [Apcin] (top concentration tested 10000 nM) | 95.3 | 83.2 |
| CN(C)c1ccccc1CN1CCCN(Cc2ccccc2N(C)C)C1c1ccncc1 [GANT61] (top concentration tested 10000 nM) | 83.1 | 70.7 |
| Cn1nnc2c(C(N)=O)ncn2c1=O [Temozolomide] (top concentration tested 50000 nM) | 93.2 | 83.2 |

| Structure (SMILES) | fitted bottom plateau of viability curve (SW837) [%] | fitted bottom plateau of viability curve (NCI-H2122) [%] |
| --- | --- | --- |
| CC(C)(C)c1cc(NC(=O)Nc2ccc(-c3cn4c(n3)sc3cc(OCCN5CCOCC5)ccc34)cc2)no1 [Quizartinib] (top concentration tested 1000.1 nM) | 94.1 | 79.3 |
| CC(C)(C)c1nc(-c2cccc(NS(=O)(=O)c3c(F)cccc3F)c2F)c(-c2ccnc(N)n2)s1 [Dabrafenib] (top concentration tested 1000.1 nM) | 93.1 | 73.8 |
| CC(O)(CS(=O)(=O)c1ccc(F)cc1)C(=O)Nc1ccc(C#N)c(C(F)(F)F)c1 (stereo not drawn) [Bicalutamide] (top concentration tested 10000 nM) | 77.3 | 71.7 |
| CNC(=O)c1ccc(N2C(=S)N(c3ccc(C#N)c(C(F)(F)F)c3)C(=O)C2(C)C)cc1F [Enzalutamide] (top concentration tested 10000 nM) | 93.1 | 83.9 |
| CN(C)C(=N)NC(=N)N [Metformin] (top concentration tested 50000 nM) | 97.5 | 76.5 |
| Nc1nc(Nc2ccc3c(c2)CC[C@@H](N2CCCC2)CC3)nn1-c1cc2c(nn1)-c1ccccc1CCC2 [Bemcentinib] (top concentration tested 1000.1 nM) | 84.4 | 70.6 |
| CN[C@@H](C)C(=O)N[C@H](C(=O)N1CCC[C@H]1c1nc(C(=O)c2ccc(F)cc2)cs1)C1CCCCC1 [LCL161] (top concentration tested 10000 nM) | 86.1 | 69.3 |
| CO[C@H]1C[C@@H]2CC[C@@H](C)[C@@](O)(O2)C(=O)C(=O)N2CCCC[C@H]2C(=O)O[C@H]([C@H](C)C[C@@H]2CC[C@@H](OCCO)[C@H](OC)C2)CC(=O)[C@H](C)/C=C(\C)[C@@H](O)[C@@H](OC)C(=O)[C@H](C)C[C@H](C)/C=C/C=C/C=C/1C [Everolimus] (top concentration tested 99.976 nM) | 95.4 | 76.4 |
| CNC(=O)c1cc(Oc2ccc(NC(=O)Nc3ccc(Cl)c(C(F)(F)F)c3)cc2)ccn1 [Sorafenib] (top concentration tested 999.95 nM) | 92.6 | 84.3 |
| CCCCCOC(=O)Nc1nc(=O)n([C@@H]2O[C@H](C)[C@@H](O)[C@H]2O)cc1F [Capecitabin] (top concentration tested 50000 nM) | 101 | 75.7 |
| N[C@H]1CC[C@H](N[C@@H]2C[C@H]2c2ccccc2)CC1 [ORY-1001] (top concentration tested 49.848 nM) | 90.5 | 68.1 |
| Nc1nc(F)nc2c1ncn2[C@@H]1O[C@H](CO)[C@@H](O)[C@@H]1O [Fludarabine] (top concentration tested 9999.9 nM) | 59.4 | 71 |
| C[C@]12CC[C@@H]3c4ccc(O)cc4C[C@@H](CCCCCCCCC[S+]([O-])CCCC(F)(F)C(F)(F)F)[C@H]3[C@@H]1CC[C@@H]2O (stereo partly drawn) [Fulvestrant] (top concentration tested 1000 nM) | 91.1 | 75.9 |
| C=C(c1ccc(C(=O)O)cc1)c1cc2c(cc1C)C(C)(C)CCC2(C)C [Bexarotene] (top concentration tested 10000 nM) | 96.9 | 89.9 |
| C[C@H](CS)C(=O)N1CCC[C@H]1C(=O)O [Captopril] (top concentration tested 1000 nM) | 91.7 | 65.1 |
| Cc1ccc(NC(=O)c2ccc(CN3CCN(C)CC3)cc2)cc1Nc1nc(-c2cccnc2)cs1 [Masitinib] (top concentration tested 1000.1 nM) | 95.6 | 79.5 |
| COc1cc2c(Oc3ccc4[nH]c(C)cc4c3F)ncnc2cc1OCCCN1CCCC1 [Cediranib] (top concentration tested 100.11 nM) | 90.6 | 70 |
| O=C(O)c1nn(Cc2ccc(Cl)cc2Cl)c2ccccc12 [Lonidamine] (top concentration tested 10000 nM) | 86.4 | 77.4 |
| CN(C)CCCC(=O)Nc1n[nH]c2nnc(-c3ccccc3)cc12 (top concentration tested 10000 nM) | 85.9 | 76.1 |
